Inhibition data for one compound are collected here from paper PMC4956396 (Molecular Pain, 2016).

For one assay, the target named is Cav3.3 (Homo sapiens, UniProt Q9P0X4). Briefly: whole-cell patch clamp, transiently transfected tsA-201 cells, % inhibition at […]. It counts as cell-based. The following applies: tsA201, read-out: % inhibition at 10 μM. On the technique in general: Patch clamp records ionic current or voltage across a cell membrane.
The target in a further assay is Cav3.1 (Homo sapiens, UniProt O43497). Described as above. It counts as cell-based. The following applies: tsA201, read-out: % inhibition at 10 μM.

Usually inhibition stands for how much of the control response was suppressed.

Cav3.1, sequence (O43497 whole entry): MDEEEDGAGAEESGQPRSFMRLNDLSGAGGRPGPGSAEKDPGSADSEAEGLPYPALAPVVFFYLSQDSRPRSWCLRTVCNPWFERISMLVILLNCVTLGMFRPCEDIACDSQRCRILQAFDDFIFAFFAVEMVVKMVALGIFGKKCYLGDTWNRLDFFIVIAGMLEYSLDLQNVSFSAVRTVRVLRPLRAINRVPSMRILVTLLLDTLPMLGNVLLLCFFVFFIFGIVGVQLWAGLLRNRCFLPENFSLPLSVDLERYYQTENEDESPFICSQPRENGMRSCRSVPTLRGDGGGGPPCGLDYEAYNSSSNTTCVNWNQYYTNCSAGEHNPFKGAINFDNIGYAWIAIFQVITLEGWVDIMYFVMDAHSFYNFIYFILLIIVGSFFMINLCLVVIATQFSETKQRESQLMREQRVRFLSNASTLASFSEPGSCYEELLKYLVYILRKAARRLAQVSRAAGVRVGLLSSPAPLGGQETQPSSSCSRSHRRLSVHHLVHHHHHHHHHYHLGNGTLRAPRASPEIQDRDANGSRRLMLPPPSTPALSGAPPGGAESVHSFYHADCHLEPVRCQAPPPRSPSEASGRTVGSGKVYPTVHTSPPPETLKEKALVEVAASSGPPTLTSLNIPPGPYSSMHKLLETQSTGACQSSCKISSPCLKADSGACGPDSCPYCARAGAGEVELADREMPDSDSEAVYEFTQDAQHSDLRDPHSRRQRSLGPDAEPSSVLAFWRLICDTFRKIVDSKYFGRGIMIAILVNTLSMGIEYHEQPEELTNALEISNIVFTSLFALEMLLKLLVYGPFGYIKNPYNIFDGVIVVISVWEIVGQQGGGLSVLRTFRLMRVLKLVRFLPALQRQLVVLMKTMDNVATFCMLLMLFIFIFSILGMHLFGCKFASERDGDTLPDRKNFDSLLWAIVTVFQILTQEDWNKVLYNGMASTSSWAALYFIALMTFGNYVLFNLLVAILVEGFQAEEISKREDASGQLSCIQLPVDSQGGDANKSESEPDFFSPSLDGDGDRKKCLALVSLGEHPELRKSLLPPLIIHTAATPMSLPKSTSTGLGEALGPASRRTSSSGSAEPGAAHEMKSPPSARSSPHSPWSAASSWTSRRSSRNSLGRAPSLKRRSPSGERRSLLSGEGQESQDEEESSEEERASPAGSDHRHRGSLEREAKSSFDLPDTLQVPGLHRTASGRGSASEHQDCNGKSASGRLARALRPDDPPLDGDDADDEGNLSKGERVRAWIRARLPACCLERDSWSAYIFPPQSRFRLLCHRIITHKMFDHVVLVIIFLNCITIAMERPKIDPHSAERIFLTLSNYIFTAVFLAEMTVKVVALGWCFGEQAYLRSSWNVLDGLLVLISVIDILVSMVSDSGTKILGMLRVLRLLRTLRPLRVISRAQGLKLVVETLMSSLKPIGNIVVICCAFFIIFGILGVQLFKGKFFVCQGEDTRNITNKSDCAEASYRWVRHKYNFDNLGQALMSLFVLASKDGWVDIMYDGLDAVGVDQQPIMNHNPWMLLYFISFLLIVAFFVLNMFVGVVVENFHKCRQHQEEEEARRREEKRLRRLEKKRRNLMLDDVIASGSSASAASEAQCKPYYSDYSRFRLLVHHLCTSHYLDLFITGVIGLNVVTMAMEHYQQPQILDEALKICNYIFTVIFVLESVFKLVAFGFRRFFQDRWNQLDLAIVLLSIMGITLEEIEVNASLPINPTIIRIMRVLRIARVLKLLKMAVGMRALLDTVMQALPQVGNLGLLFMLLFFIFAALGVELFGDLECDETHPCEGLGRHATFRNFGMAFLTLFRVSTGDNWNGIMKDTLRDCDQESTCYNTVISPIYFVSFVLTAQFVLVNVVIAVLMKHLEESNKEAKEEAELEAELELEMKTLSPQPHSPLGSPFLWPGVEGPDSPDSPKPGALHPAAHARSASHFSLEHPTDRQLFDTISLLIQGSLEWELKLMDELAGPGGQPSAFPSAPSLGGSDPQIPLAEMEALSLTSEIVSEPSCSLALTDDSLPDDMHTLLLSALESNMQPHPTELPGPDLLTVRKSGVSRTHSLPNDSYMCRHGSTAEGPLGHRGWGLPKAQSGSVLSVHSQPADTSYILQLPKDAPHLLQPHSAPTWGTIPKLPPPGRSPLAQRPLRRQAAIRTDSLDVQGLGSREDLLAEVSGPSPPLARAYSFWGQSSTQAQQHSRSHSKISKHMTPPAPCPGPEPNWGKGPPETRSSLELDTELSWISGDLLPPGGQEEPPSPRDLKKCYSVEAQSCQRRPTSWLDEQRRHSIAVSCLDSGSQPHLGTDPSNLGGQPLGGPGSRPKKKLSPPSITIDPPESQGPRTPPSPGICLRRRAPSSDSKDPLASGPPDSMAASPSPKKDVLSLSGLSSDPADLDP
Cav3.3, sequence (Q9P0X4 whole entry): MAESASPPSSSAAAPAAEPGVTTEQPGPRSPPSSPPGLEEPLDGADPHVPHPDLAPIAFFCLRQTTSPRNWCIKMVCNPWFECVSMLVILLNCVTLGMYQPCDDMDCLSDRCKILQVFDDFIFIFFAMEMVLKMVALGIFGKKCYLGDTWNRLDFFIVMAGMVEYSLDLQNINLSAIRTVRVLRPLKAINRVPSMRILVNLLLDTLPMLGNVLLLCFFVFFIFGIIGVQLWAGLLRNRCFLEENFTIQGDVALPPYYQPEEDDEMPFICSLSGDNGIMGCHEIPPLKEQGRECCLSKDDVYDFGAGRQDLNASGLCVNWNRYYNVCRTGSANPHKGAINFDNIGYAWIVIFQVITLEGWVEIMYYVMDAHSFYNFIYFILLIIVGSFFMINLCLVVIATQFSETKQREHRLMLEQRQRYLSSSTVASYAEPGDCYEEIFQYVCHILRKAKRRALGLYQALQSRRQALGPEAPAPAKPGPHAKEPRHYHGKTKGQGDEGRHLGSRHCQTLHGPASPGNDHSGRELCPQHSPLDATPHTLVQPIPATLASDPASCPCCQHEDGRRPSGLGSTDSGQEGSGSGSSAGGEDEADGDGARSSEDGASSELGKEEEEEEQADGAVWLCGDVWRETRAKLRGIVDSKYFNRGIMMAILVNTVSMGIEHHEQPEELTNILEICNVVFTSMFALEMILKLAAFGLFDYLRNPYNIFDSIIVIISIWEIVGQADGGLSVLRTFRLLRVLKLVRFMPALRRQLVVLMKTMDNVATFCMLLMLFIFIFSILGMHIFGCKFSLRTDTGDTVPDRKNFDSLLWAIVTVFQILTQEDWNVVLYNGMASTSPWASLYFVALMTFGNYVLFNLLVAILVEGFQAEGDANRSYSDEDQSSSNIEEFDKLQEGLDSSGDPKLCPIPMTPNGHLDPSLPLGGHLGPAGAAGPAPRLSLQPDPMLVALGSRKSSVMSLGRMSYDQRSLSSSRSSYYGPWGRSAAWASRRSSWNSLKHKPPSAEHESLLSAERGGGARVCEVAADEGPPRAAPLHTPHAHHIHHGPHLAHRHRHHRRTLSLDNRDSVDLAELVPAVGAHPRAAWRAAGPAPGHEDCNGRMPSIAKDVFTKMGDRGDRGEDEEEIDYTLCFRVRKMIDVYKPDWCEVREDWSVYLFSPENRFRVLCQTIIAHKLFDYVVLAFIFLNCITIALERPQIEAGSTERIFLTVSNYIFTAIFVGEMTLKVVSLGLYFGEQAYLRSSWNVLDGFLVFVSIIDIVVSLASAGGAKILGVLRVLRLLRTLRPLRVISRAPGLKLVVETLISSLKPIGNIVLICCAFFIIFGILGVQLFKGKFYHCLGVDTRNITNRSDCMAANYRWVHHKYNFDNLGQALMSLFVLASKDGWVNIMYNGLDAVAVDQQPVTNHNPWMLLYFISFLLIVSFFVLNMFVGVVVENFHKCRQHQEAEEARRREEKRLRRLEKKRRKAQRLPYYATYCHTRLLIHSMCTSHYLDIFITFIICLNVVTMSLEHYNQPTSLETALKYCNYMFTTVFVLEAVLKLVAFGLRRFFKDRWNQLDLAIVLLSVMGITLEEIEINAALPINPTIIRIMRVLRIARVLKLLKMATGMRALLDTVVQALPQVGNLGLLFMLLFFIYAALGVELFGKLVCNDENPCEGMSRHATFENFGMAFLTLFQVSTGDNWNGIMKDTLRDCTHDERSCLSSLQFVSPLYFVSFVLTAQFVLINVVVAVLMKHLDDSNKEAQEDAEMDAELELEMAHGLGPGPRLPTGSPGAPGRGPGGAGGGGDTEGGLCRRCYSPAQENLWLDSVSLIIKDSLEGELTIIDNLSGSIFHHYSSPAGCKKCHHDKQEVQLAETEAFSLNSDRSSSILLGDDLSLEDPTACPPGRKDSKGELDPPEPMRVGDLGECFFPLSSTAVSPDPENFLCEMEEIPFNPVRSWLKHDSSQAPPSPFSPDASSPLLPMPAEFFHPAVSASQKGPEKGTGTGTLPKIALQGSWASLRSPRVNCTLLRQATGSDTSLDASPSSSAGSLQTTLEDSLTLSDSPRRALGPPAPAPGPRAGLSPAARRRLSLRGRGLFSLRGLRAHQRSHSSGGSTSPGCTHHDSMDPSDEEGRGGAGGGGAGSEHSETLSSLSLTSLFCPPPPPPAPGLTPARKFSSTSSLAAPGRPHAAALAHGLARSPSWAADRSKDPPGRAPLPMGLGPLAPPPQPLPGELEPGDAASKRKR

For `COc1ccccc1-c1no[n+]([O-])c1CN1CCN(C(c2ccc(F)cc2)c2ccc(F)cc2)CC1` [10e, 3-((4-(bis(4-fluorophenyl)methyl)piperazin-1-yl)methyl)-4-(2-methoxyphenyl)-1,2,5-oxadiazole 2-oxide], the figures for the inhibition at 10 µM at Cav3.3 and on Cav3.1 were 88.4 ± 4.08% and 93.3 ± 2.78%, respectively.
